# Source: article PMC8429728, “TNK1 is a ubiquitin-binding and 14-3-3-regulated kinase that can be targeted to block tumor growth” (Nature Communications, 2021)
# Read-outs that look alike come from different tables or passages of the source.
# Experiments:
# Assay in all cases: biochemical
# Design in all cases: Reaction Biology 371-kinase panel at Km ATP, per cent enzyme activity relative to DMSO, single dose in duplicate
# AKT1 = AKT1 (Homo sapiens, UniProt P31749); settings: duplicate measurements, Km ATP; read-out: % Enzyme Activity (relative to DMSO controls) / TP-0005801 (0.3µM) / Data 1
# Summary of the method: (§1)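 Compound screened at 300 nM in vitro across a 371-kinase panel. Enzyme activity expressed as % of DMSO controls. IC50 values came from sigmoidal variable-slope dose-response fits with the bottom fixed at 0.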
# ALK = ALK (Homo sapiens, UniProt Q9UM73); settings: duplicate measurements, Km ATP
# Summary of the method: as §1
# ALK3/BMPR1A = ALK3/BMPR1A (Homo sapiens, UniProt P36894); settings: duplicate measurements, Km ATP
# Summary of the method: as §1
# BRK = molecular target: T1, BRK (Homo sapiens, UniProt Q13882); settings: duplicate measurements, Km ATP
# T1 construct: gene PTK6
# Summary of the method: as §1
# CAMKK2 = CAMKK2 (Homo sapiens, UniProt Q96RR4); settings: duplicate measurements, Km ATP
# Summary of the method: as §1
# CDK1/cyclin B = CDK1/cyclin B (Homo sapiens, UniProt P06493); settings: duplicate measurements, Km ATP; read-out: % Enzyme Activity (relative to DMSO controls) / TP-0005801 (0.3µM) / Data 1
# Summary of the method: as §1
# EPHA2 = EPHA2 (Homo sapiens, UniProt P29317); settings: duplicate measurements, Km ATP
# Summary of the method: as §1
# GRK3 = GRK3 (Homo sapiens, UniProt P35626); settings: duplicate measurements, Km ATP
# Summary of the method: as §1
# Haspin = Haspin (Homo sapiens, UniProt Q8TF76); settings: duplicate measurements, Km ATP
# Summary of the method: as §1
# JNK3 = molecular target: T2, JNK3 (Homo sapiens, UniProt P53779); settings: duplicate measurements, Km ATP
# T2 construct: gene MAPK10
# Summary of the method: as §1
# KSR1 = KSR1 (Homo sapiens, UniProt Q8IVT5); settings: duplicate measurements, Km ATP
# Summary of the method: as §1
# MARK2/PAR-1Ba = MARK2/PAR-1Ba (Homo sapiens, UniProt Q7KZI7); settings: duplicate measurements, Km ATP
# Summary of the method: as §1
# MLCK/MYLK = MLCK/MYLK (Homo sapiens, UniProt Q15746); settings: duplicate measurements, Km ATP
# Summary of the method: as §1
# MST1/STK4 = MST1/STK4 (Homo sapiens, UniProt Q13043); settings: duplicate measurements, Km ATP
# Summary of the method: as §1
# PAK2 = PAK2 (Homo sapiens, UniProt Q13177); settings: duplicate measurements, Km ATP; read-out: % Enzyme Activity (relative to DMSO controls) / TP-0005801 (0.3µM) / Data 1
# Summary of the method: as §1
# RIPK5 = molecular target: T3, RIPK5 (Homo sapiens, UniProt Q6XUX3); settings: duplicate measurements, Km ATP
# T3 construct: gene DSTYK
# Summary of the method: as §1
# ROCK2 = ROCK2 (Homo sapiens, UniProt O75116); settings: duplicate measurements, Km ATP; read-out: % Enzyme Activity (relative to DMSO controls) / TP-0005801 (0.3µM) / Data 1
# Summary of the method: as §1
# SIK2 = SIK2 (Homo sapiens, UniProt Q9H0K1); settings: duplicate measurements, Km ATP
# Summary of the method: as §1
# TSSK2 = TSSK2 (Homo sapiens, UniProt Q96PF2); settings: duplicate measurements, Km ATP
# Summary of the method: as §1
# TTBK2 = TTBK2 (Homo sapiens, UniProt Q6IQ55); settings: duplicate measurements, Km ATP
# Summary of the method: as §1
# [1] = read-out: % Enzyme Activity (relative to DMSO controls) / TP-0005801 (0.3µM) / Data 1
# [2] = read-out: % Enzyme Activity (relative to DMSO controls) / TP-0005801 (0.3µM) / Data 2
# T3 sequence (Q6XUX3 whole entry): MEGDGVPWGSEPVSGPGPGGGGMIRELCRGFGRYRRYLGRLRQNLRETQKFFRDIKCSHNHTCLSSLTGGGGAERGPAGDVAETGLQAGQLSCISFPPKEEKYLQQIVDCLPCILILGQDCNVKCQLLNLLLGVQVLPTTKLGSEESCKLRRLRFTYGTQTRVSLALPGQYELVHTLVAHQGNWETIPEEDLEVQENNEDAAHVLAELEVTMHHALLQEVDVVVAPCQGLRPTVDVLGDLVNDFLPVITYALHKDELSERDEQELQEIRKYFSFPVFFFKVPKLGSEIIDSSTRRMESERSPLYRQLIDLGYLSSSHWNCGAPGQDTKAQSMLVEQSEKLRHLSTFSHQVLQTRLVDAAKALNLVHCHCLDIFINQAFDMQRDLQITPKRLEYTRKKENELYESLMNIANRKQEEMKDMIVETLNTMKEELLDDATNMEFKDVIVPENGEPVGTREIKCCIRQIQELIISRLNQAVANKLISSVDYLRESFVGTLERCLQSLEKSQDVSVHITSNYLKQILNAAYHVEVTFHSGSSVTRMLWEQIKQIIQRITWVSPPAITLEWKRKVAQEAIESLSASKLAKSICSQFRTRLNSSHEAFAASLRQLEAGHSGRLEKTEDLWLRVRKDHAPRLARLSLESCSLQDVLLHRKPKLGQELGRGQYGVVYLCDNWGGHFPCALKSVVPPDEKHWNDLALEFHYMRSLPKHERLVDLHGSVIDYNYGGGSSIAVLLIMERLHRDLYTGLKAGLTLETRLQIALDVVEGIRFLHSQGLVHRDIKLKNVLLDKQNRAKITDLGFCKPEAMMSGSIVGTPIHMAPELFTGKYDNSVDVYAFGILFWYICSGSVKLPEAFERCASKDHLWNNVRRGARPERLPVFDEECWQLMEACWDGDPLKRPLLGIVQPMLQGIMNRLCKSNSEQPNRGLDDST
# TSSK2, sequence (Q96PF2 whole entry): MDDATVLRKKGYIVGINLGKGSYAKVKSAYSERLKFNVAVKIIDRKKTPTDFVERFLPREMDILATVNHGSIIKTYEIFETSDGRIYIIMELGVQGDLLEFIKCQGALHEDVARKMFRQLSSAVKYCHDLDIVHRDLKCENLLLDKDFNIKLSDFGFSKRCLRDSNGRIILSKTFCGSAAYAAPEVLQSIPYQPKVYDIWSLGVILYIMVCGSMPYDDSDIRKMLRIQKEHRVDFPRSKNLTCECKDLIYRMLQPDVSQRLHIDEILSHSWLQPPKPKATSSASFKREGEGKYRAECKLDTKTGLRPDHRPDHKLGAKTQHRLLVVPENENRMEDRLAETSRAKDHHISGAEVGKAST
# KSR1, sequence (Q8IVT5 whole entry): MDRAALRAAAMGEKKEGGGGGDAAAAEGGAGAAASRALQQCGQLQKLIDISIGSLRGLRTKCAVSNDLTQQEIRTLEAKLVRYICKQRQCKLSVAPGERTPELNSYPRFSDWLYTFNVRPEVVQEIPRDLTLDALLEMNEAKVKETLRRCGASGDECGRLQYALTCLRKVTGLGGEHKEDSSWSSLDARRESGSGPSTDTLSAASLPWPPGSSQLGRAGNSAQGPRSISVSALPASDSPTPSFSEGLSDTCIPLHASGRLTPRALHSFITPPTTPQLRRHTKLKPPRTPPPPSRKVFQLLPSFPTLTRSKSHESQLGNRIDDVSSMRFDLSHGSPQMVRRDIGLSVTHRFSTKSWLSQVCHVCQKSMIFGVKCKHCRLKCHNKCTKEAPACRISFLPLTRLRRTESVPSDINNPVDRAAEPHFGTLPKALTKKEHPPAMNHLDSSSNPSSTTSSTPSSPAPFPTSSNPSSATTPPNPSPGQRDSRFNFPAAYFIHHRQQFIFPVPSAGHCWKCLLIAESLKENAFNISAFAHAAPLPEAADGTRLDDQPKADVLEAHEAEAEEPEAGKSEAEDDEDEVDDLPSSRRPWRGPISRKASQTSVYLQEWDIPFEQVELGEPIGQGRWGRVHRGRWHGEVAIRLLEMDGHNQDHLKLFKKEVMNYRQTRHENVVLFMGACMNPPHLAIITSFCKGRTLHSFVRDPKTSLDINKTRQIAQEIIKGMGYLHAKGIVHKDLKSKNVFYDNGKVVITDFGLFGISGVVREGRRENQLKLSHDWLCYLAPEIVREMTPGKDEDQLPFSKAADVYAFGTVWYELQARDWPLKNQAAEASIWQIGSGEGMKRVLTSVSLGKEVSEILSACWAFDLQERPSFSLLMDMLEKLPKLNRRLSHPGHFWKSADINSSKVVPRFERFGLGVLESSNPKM
# MARK2/PAR-1Ba, sequence (Q7KZI7 whole entry): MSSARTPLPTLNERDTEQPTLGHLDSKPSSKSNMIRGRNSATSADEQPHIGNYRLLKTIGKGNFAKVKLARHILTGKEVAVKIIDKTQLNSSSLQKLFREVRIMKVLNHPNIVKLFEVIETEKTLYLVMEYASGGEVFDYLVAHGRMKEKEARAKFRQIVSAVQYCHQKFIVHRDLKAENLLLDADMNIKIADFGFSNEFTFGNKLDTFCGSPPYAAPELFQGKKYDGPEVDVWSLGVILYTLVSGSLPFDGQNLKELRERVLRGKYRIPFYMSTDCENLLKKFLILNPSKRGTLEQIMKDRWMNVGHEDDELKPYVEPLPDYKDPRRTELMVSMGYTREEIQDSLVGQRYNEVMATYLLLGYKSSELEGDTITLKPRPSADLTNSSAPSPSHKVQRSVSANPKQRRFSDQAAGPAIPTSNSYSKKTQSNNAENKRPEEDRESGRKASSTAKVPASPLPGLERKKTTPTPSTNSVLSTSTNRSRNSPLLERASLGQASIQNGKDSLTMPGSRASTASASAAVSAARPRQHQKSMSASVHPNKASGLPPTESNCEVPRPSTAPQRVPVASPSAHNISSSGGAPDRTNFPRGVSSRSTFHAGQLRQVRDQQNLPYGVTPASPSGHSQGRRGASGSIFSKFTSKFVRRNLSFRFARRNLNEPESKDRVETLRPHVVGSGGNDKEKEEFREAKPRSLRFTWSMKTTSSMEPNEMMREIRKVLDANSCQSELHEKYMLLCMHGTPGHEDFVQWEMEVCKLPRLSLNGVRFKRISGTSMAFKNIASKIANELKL
# ALK, sequence (Q9UM73 whole entry): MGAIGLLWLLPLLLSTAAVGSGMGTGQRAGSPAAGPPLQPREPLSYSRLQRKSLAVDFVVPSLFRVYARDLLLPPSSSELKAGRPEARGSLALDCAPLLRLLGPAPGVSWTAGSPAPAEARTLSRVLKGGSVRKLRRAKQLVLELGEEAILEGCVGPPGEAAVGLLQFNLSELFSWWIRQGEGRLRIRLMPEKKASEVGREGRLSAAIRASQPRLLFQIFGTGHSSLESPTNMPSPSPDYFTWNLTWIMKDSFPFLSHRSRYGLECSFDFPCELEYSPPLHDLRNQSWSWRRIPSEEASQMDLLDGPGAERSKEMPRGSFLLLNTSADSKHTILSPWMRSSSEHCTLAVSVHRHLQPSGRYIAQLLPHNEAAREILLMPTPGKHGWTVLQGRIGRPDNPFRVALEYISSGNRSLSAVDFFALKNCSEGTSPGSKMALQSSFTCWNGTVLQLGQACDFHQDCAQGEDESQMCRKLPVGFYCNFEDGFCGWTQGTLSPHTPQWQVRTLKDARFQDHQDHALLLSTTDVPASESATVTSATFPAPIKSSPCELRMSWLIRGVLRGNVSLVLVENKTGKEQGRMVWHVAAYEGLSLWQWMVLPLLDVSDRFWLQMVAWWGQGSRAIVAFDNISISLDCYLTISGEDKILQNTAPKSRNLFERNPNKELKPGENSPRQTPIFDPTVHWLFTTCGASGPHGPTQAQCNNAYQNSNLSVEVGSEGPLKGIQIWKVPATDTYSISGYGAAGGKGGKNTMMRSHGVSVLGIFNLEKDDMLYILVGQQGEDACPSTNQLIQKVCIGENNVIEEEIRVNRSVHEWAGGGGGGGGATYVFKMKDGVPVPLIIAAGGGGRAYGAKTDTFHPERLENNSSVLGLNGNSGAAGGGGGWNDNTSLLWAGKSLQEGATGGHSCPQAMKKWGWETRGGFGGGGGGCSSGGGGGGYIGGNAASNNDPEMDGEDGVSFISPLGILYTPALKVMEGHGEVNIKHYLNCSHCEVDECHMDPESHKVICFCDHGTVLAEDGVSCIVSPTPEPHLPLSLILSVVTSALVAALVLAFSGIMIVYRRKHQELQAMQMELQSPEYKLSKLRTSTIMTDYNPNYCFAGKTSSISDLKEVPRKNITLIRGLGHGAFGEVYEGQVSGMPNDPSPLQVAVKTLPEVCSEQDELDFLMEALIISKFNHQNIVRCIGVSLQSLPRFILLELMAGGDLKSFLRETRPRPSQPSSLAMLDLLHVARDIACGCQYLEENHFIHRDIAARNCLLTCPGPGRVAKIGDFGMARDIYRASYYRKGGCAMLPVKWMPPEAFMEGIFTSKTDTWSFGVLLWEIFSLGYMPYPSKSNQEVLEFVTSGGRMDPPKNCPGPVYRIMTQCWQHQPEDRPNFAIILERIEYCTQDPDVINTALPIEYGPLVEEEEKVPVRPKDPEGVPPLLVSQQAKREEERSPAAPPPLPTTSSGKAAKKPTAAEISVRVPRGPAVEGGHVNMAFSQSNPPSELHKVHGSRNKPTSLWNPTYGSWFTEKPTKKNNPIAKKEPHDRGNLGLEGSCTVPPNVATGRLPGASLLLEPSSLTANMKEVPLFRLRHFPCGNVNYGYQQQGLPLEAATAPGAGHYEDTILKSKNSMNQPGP
# T1 sequence (Q13882 whole entry): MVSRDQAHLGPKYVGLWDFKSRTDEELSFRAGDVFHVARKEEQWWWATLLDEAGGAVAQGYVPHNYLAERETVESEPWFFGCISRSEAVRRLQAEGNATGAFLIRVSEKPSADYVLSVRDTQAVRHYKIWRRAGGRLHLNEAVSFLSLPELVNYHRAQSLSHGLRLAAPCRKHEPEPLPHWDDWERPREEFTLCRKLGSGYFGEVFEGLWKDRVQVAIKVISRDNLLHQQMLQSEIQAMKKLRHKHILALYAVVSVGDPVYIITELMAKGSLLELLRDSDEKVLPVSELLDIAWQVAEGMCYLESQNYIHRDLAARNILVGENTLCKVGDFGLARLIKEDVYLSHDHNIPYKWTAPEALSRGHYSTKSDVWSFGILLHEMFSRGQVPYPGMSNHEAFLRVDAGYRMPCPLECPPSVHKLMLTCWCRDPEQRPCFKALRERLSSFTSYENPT
compound,measurement,setting,value
COc1cc(N2CCN(C)CC2)c(C)cc1Nc1ncc(Br)c(Nc2cccnc2N(C)C)n1 [TP-5801],remaining activity at 0.3 µM,AKT1,105%
same,remaining activity at 0.3 µM,ALK; [1],3.64%
same,remaining activity at 0.3 µM,ALK; [2],3.52%
same,remaining activity at 0.3 µM,ALK3/BMPR1A; [1],105%
same,remaining activity at 0.3 µM,ALK3/BMPR1A; [2],100%
same,remaining activity at 0.3 µM,BRK; [1],78%
same,remaining activity at 0.3 µM,BRK; [2],76.5%
same,remaining activity at 0.3 µM,CAMKK2; [1],31.9%
same,remaining activity at 0.3 µM,CAMKK2; [2],30.2%
same,remaining activity at 0.3 µM,CDK1/cyclin B,103%
same,remaining activity at 0.3 µM,EPHA2; [1],98.3%
same,remaining activity at 0.3 µM,EPHA2; [2],95.9%
same,remaining activity at 0.3 µM,GRK3; [1],93.9%
same,remaining activity at 0.3 µM,GRK3; [2],93%
same,remaining activity at 0.3 µM,Haspin; [1],88.2%
same,remaining activity at 0.3 µM,Haspin; [2],86.9%
same,remaining activity at 0.3 µM,JNK3; [1],81%
same,remaining activity at 0.3 µM,JNK3; [2],80.7%
same,remaining activity at 0.3 µM,KSR1; [1],99.2%
same,remaining activity at 0.3 µM,KSR1; [2],97.6%
same,remaining activity at 0.3 µM,MARK2/PAR-1Ba; [1],93.2%
same,remaining activity at 0.3 µM,MARK2/PAR-1Ba; [2],92.1%
same,remaining activity at 0.3 µM,MLCK/MYLK; [1],93.8%
same,remaining activity at 0.3 µM,MLCK/MYLK; [2],90.8%
same,remaining activity at 0.3 µM,MST1/STK4; [1],101%
same,remaining activity at 0.3 µM,MST1/STK4; [2],97.2%
same,remaining activity at 0.3 µM,PAK2,104%
same,remaining activity at 0.3 µM,RIPK5; [1],108%
same,remaining activity at 0.3 µM,RIPK5; [2],101%
same,remaining activity at 0.3 µM,ROCK2,103%
same,remaining activity at 0.3 µM,SIK2; [1],79.4%
same,remaining activity at 0.3 µM,SIK2; [2],78.3%
same,remaining activity at 0.3 µM,TSSK2; [1],88.4%
same,remaining activity at 0.3 µM,TSSK2; [2],86.9%
same,remaining activity at 0.3 µM,TTBK2; [1],90.3%
same,remaining activity at 0.3 µM,TTBK2; [2],83.1%
